# Source: PMC11345841, “Exploring 2-Sulfonylpyrimidine Warheads as Acrylamide Surrogates for Targeted Covalent Inhibition: A BTK Story” (Journal of Medicinal Chemistry, 2024)
# Read-outs that look alike come from different tables or passages of the source.
# Legend:
# Experiment in all cases: KINOMEscan ScanTK
# Assay type in all cases: binding
# [1] = target: T1, SRMS (Homo sapiens, UniProt Q9H3Y6); settings: SRMS
# T1 construct: purchased Eurofins DiscoverX KINOMEscan (scanTK)
# [2] = target: T2, EGFR (Homo sapiens, UniProt P00533)
# T2 construct: purchased Eurofins DiscoverX KINOMEscan (scanTK)
# [3] = target: T3, TNK1 (Homo sapiens, UniProt Q13470)
# T3 construct: purchased Eurofins DiscoverX KINOMEscan (scanTK)
# T3 sequence (Q13470 1-666): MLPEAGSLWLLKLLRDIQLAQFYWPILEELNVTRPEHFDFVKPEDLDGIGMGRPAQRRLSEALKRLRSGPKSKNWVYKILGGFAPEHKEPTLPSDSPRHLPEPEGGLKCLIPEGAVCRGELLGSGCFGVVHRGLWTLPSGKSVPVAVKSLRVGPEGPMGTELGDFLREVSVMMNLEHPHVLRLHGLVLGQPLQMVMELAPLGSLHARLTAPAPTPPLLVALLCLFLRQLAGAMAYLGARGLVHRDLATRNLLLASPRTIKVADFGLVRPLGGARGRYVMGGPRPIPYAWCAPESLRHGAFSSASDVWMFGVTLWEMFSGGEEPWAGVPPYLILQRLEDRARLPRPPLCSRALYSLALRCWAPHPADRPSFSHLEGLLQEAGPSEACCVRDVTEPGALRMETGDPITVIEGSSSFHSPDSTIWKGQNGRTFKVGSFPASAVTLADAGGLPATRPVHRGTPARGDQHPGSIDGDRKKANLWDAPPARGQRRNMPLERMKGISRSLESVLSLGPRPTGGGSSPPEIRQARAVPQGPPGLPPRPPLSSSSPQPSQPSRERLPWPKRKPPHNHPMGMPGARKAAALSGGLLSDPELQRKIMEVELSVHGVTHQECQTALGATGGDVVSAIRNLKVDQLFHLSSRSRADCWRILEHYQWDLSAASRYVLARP
# [4] = target: T4, TYK2(JH2domain-pseudokinase) (Homo sapiens, UniProt P29597)
# T4 construct: TYK2(JH2domain-pseudokinase); purchased Eurofins DiscoverX KINOMEscan (scanTK)
# [5] = target: T5, TXK (Homo sapiens, UniProt P42681)
# T5 construct: purchased Eurofins DiscoverX KINOMEscan (scanTK)
# T5 sequence (P42681 1-527): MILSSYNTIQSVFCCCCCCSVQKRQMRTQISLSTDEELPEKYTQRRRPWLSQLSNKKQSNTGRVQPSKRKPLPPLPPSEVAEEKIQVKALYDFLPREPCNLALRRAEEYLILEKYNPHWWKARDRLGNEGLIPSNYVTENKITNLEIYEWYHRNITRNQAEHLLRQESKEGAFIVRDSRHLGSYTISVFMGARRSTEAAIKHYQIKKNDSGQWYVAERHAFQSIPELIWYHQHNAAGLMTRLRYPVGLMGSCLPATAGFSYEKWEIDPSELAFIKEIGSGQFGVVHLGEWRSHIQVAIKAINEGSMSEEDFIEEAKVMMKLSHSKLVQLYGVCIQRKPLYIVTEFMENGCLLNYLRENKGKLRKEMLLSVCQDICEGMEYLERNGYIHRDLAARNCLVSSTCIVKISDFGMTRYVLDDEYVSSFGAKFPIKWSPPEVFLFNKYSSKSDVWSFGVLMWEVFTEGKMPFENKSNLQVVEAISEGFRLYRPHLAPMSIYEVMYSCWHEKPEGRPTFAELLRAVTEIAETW
# [6] = target: T6, ABL1(E255K)-phosphorylated (Homo sapiens, UniProt P00519, E255K)
# T6 construct: purchased Eurofins DiscoverX KINOMEscan (scanTK)
# [7] = target: T7, FLT1 (Homo sapiens, UniProt P17948)
# T7 construct: purchased Eurofins DiscoverX KINOMEscan (scanTK)
# [8] = target: T8, TEC (Homo sapiens, UniProt P42680)
# T8 construct: purchased Eurofins DiscoverX KINOMEscan (scanTK)
# T8 sequence (P42680 1-631): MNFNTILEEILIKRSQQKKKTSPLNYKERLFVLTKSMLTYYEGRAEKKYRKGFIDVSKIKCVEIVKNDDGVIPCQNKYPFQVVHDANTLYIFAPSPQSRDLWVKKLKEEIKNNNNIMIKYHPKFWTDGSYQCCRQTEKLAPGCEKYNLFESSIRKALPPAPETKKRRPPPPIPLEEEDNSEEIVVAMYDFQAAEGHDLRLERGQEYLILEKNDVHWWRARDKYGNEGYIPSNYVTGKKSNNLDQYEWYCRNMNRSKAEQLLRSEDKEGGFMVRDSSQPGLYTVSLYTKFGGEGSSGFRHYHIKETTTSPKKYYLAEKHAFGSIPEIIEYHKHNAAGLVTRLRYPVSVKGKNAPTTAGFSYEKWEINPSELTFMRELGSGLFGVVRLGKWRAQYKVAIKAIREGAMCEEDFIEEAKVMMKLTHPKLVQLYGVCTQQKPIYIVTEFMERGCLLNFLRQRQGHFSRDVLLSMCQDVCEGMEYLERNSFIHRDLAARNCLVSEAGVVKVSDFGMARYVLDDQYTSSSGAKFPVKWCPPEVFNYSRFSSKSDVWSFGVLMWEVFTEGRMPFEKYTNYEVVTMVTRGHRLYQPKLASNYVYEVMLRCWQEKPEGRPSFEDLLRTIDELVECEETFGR
# [9] = target: T9, ERBB2 (Homo sapiens, UniProt P04626); settings: ERBB2
# T9 construct: purchased Eurofins DiscoverX KINOMEscan (scanTK)
# [10] = target: T10, KIT(V559D,T670I) (Homo sapiens, UniProt P10721, T670I/V559D)
# T10 construct: purchased Eurofins DiscoverX KINOMEscan (scanTK)
# [11] = target: T11, LCK (Homo sapiens, UniProt P06239)
# T11 construct: purchased Eurofins DiscoverX KINOMEscan (scanTK)
# [12] = target: T12, ALK (Homo sapiens, UniProt Q9UM73)
# T12 construct: purchased Eurofins DiscoverX KINOMEscan (scanTK)
# [13] = @1000nM, read-out: % difference (compound - Ib %Control)
# T10 sequence (P10721 26-976 V559D/T670I): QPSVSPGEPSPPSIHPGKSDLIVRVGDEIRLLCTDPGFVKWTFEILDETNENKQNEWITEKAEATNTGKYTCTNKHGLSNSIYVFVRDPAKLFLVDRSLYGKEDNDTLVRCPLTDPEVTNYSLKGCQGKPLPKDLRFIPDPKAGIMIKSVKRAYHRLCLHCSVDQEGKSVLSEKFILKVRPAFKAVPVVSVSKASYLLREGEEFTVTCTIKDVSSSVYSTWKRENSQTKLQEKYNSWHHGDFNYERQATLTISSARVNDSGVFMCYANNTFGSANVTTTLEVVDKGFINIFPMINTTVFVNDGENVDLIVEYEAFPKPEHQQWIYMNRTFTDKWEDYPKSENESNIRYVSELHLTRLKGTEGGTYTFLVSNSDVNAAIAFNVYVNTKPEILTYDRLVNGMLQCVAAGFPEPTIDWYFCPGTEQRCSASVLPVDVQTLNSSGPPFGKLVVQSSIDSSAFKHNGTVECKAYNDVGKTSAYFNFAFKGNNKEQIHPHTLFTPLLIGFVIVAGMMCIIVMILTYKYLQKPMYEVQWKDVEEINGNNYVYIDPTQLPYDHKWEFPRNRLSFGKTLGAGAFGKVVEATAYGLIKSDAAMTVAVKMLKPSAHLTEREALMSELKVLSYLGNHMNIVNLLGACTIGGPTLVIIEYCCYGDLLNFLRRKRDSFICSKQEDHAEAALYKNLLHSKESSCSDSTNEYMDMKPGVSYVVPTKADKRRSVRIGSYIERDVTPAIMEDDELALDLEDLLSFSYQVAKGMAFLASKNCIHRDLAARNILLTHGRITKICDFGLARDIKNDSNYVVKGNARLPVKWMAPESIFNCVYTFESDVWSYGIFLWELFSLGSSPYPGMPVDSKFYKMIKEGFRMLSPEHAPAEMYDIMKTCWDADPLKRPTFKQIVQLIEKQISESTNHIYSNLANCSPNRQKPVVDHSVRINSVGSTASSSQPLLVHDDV
# T7 sequence (P17948 27-1338): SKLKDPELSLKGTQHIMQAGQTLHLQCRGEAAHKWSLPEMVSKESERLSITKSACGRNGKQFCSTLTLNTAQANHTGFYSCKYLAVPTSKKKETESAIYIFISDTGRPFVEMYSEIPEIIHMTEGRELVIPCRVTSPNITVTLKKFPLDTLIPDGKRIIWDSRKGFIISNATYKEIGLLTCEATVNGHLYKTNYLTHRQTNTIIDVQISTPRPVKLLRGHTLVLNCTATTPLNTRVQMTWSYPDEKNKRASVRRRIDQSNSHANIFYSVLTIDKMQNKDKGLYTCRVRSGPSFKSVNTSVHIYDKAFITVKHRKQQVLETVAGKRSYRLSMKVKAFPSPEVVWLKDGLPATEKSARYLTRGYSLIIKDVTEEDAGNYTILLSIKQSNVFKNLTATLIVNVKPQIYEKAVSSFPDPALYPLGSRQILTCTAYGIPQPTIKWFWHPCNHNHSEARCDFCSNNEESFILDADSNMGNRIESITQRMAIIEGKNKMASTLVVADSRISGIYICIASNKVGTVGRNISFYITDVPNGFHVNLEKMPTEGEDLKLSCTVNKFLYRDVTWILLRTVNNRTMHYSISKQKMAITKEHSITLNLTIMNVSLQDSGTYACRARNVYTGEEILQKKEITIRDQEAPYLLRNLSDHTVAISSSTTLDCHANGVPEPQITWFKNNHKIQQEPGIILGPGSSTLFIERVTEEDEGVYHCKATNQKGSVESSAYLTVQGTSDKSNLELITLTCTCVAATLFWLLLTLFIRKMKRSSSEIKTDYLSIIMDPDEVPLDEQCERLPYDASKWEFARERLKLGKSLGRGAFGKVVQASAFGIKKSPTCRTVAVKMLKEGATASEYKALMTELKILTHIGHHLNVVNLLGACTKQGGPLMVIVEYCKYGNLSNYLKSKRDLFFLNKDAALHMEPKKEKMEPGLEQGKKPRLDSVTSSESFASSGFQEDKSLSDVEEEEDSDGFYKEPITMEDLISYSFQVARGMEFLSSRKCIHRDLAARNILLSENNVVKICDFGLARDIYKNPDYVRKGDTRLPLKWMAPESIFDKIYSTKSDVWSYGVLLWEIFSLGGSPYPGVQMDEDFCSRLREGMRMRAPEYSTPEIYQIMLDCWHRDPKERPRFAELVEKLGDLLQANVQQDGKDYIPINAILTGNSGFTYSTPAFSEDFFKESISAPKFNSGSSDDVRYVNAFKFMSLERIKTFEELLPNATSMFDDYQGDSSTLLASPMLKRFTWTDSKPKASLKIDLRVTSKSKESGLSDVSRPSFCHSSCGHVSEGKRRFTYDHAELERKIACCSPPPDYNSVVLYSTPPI
# T9 sequence (P04626 23-1255): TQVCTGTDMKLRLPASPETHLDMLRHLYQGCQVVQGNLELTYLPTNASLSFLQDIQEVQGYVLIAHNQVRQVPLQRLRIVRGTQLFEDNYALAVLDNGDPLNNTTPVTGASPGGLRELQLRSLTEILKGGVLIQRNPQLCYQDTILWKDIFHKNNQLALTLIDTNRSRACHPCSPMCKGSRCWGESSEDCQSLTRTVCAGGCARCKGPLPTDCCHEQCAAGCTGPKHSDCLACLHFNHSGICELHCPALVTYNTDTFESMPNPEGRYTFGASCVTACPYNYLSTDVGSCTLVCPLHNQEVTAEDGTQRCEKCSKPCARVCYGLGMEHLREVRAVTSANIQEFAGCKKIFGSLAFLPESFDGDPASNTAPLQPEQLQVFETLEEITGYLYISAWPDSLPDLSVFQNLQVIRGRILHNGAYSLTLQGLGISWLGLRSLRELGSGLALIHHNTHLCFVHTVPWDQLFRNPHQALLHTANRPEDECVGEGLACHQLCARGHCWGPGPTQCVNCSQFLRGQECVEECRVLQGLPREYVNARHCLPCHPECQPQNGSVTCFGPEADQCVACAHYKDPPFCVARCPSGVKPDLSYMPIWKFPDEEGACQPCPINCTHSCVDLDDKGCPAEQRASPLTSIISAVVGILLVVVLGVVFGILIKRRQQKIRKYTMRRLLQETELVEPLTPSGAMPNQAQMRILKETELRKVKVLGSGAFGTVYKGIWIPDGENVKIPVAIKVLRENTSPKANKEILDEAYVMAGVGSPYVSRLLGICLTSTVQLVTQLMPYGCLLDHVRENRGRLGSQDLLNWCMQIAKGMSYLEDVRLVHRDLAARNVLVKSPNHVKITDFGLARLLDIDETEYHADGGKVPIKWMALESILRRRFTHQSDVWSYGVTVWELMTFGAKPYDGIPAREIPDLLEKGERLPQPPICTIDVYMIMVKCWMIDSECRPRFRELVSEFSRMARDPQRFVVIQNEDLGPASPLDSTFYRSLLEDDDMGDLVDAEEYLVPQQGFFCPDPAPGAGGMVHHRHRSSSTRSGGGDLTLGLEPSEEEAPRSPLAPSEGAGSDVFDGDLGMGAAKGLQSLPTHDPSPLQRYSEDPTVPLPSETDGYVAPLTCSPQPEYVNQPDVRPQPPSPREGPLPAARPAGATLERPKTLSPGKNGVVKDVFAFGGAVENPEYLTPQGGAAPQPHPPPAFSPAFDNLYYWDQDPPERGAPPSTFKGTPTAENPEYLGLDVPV
# T4 sequence (P29597 575-869 limits assumed): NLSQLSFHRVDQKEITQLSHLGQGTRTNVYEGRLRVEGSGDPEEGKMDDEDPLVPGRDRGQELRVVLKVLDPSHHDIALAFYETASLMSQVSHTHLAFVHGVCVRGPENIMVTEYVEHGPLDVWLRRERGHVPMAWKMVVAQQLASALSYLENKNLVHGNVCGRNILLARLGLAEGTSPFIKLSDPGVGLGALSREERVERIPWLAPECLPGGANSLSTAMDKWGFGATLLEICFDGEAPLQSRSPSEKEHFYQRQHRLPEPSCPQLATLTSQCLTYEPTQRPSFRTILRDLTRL
# T6 sequence (P00519 whole entry E255K): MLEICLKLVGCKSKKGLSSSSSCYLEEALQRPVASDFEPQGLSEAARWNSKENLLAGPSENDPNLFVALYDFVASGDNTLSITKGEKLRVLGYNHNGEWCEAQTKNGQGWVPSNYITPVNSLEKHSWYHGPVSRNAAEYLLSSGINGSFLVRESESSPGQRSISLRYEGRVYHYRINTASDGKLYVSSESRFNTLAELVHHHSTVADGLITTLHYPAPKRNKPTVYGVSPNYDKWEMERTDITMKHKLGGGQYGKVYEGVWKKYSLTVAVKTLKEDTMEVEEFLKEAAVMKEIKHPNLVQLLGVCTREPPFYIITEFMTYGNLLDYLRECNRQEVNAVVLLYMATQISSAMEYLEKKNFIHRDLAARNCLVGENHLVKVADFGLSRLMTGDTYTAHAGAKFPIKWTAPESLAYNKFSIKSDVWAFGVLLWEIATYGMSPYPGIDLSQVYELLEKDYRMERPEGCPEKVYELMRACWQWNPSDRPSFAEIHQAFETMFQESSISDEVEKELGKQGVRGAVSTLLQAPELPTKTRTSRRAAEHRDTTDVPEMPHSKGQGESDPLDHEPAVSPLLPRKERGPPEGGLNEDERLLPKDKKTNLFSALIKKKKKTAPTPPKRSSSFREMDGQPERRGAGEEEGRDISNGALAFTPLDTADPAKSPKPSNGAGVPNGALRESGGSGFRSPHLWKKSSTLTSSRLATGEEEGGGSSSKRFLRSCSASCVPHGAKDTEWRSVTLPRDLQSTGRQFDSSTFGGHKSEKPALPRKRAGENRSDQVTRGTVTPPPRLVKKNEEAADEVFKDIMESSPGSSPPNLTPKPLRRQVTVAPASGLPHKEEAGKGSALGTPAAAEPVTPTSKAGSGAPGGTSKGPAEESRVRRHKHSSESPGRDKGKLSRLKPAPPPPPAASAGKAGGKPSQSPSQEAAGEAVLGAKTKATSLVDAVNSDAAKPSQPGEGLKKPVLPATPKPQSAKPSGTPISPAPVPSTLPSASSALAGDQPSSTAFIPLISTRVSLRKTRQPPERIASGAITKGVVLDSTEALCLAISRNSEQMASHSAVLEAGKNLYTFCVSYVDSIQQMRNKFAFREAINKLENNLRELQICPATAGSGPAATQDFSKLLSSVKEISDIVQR
smiles,measurement,setting,value
"CNC(=O)c1cnc(S(C)(=O)=O)nc1N1CCCC(n2nc(-c3ccc(Oc4ccccc4)cc3)c3c(N)ncnc32)C1 (centres unmarked) [Compound 8d, 4-(3-(4-Amino-3-(4-phenoxyphenyl)-1H-pyrazolo[3,4-d]pyrimidin-1-yl)piperidin-1-yl)-N-methyl-2-(methylsulfonyl)pyrimidine-5-carboxamide]",remaining binding at 1 µM,"[1]; @1000nM, read-out: %Control",6.5%
same,remaining binding at 1 µM,[1]; read-out: %Control @1000nM,6.5%
same,difference in %Control versus reference compound Ib at 1 µM,"[2]; @1000nM, EGFR",16.8%
same,remaining binding at 1 µM,"[2]; @1000nM, EGFR, read-out: %Control",17%
same,remaining binding at 1 µM,"[2]; EGFR, read-out: %Control @1000nM",17%
same,inhibition at 1 µM,"[2]; ScanTK, 1 μM, WT EGFR",83%
same,remaining binding at 1 µM,"[3]; @1000nM, read-out: %Control",97%
same,remaining binding at 1 µM,[3]; read-out: %Control @1000nM,97%
same,difference in %Control versus Ib at 1 µM,[4]; [13],8%
same,remaining binding at 1 µM,"[4]; @1000nM, read-out: %Control",96%
same,remaining binding at 1 µM,[4]; read-out: %Control @1000nM,96%
same,remaining binding at 1 µM,"[5]; @1000nM, read-out: %Control",10%
same,remaining binding at 1 µM,[5]; read-out: %Control @1000nM,10%
same,difference in %Control from reference Ib at 1 µM,[6]; [13],26%
same,remaining binding at 1 µM,"[6]; @1000nM, read-out: %Control",90%
same,remaining binding at 1 µM,[6]; read-out: %Control @1000nM,90%
same,difference in %Control from compound Ib at 1 µM,[7]; @1000nM,28%
same,remaining binding at 1 µM,"[7]; @1000nM, read-out: %Control",100%
same,remaining binding at 1 µM,[7]; read-out: %Control @1000nM,100%
same,remaining binding at 1 µM,"[8]; @1000nM, read-out: %Control",40%
same,remaining binding at 1 µM,[8]; read-out: %Control @1000nM,40%
same,difference in %Control versus compound Ib at 1 µM,[9]; @1000nM,5.5%
same,remaining binding at 1 µM,"[9]; @1000nM, read-out: %Control",5.5%
same,remaining binding at 1 µM,[9]; read-out: %Control @1000nM,5.5%
same,difference in %Control versus compound Ib at 1 µM,[10]; @1000nM,11%
same,remaining binding at 1 µM,"[10]; @1000nM, read-out: %Control",79%
same,remaining binding at 1 µM,[10]; read-out: %Control @1000nM,79%
same,remaining binding at 1 µM,"[11]; @1000nM, read-out: %Control",4%
same,remaining binding at 1 µM,[11]; read-out: %Control @1000nM,4%
same,difference in %Control versus compound Ib at 1 µM,[12]; @1000nM,-11%
same,remaining binding at 1 µM,"[12]; @1000nM, read-out: %Control",83%
same,remaining binding at 1 µM,[12]; read-out: %Control @1000nM,83%
